Legend:
APN = APN expression in BHK-21 cells (western blot); assay type: cell-based, mouse; conditions: for APN level, western blot quantified by Image J, relative to no PM (=1): PM 10 mM
Protocol: Fig. S6. PM degrades human and mouse-derived APN expression. (A and B) HEK-293T cells (A) and […] (B) were treated with PM (10 mM) for 8 h or 16 h respectively, APN expression was measured by western blot. All western blot results were calculated by Image J. All experiments were […]
PM(10mM) - + - + PM(10mM) - + - + […]

PRCV = PRCV infection of ST cells (RT-qPCR, TCID50, western blot, IFA); assay type: cell-based, porcine respiratory coronavirus; conditions: PRCV 0.1 MOI; for PRCV N level, western blot, relative to WT without PM (=1): PM 10 mM, 16 h
Protocol: Fig 1 PM inhibits TGEV and PRCV infection in ST cells. (A) A cytotoxicity assay of PM in ST cells. ST cells cultured in a 96-well plate were incubated with different concentrations of PM for 24 h, which was tested by Cell Counting Kit 8. (B) Time course for PM inhibiting TGEV or PRCV or PEDV infection assay. (C–F) The ST cells, pretreated with PM at the indicated concentrations for 1 h were infected with TGEV Miller (0.1 MOI) or PRCV (0.1 MOI) for 1 h and were again treated with PM at 37°C for 17 h. The cell samples were collected and examined by real-time quantitative PCR (RT-qPCR), TCID50, western blot (C and D), and immunofluorescence assay (IFA) (E and F), scale bar: 50 µm. (G) Vero-E6 cells were treated with indicated PM and infected with PEDV LJX 01/2014 according to the time course of Fig. 1B, which was detected by TCID50 and western blot. Results are presented as mean ± SD of data from three independent experiments. ns, no significant; **, P ≤ 0.01; ***, P ≤ 0.001.
Fig 3 PM inhibits TGEV and PRCV infection by potassium ion and molybdate synergy. (A and B) The ST cells, pretreated with potassium chloride (KCl) or sodium molybdate (Na2MoO4) at the indicated concentrations for 1 h were infected with TGEV Miller (0.1 MOI) for 1 h and were again treated with KCl or Na2MoO4 at 37°C for 17 h. The cell samples were measured by RT-qPCR. (C and D) ST cells were treated with PM (K2MoO4, 10 mM), KCl (20 mM), Na2MoO4 (10 mM), sodium chloride (NaCl, 10 mM), K2MoO4 (10 mM), and NaCl (20 mM) as well as Na2MoO4 (10 mM) and KCl (20 mM) for 1 h and then infected with TGEV Miller (0.1 MOI) or PRCV (0.1 MOI) for 17 h, which was determined by RT-qPCR and TCID50. Results are presented as mean ± SD of data from three independent experiments. ***, P ≤ 0.001; ns, no significance.
Total RNA was extracted using RNAiso reagent (TaKaRa, Japan, 9109) and reverse transcribed into cDNA using HiScript Q RT SuperMix for qPCR (Vazyme, China, R223-01), both of which followed the manufacturer’s recommendations. The TGEV and PRCV virus copy numbers were detected by the TaqMan probe-based RT-qPCR method developed previously in our laboratory ([59]). Relative qPCR was also performed using ChamQ SYBR qPCR master mix (Vazyme, China, Q311-02), and the results were calculated via the 2^-ΔΔCT method.
Fig. S8. PM inhibits PRCV infection by degrading APN via PIK3C3-mediated autophagy. (A-C) WT ST cells and PIK3C3 KO ST cells were treated with PM (10 mM) and infected with PRCV (0.1 MOI) for 16 h. Then the APN, PIK3C3, ATG14, BECN1, P62, PRCV N and LC3 were detected by western blot (A), and viral titers and PRCV N mRNA level were determined by TCID50 (B) and RT-qPCR (C) . (D-F) WT ST cells and PIK3C3 KO ST cells transfected with pCMV-Myc and pCMV-Myc-PIK3C3 respectively for 24 h were treated with PM (10 mM) and infected with PRCV (0.1 MOI) for 16 h. The APN, PIK3C3, P62, PRCV N and LC3 were determined by western blot (D). TCID50 (E) and RT-qPCR (F) were performed to detect viral titers and PRCV N m RNA level. All western blot results were calculated by Image J. Results are presented as mean ± SD of data from three independent experiments (also on this page, place not known: 6 8 10 12 Viral load(log copies/ul) *** 2 4 6 8 log10 TCID50/ml *** 6 8 10 12 + Viral load(log copies/ul) PIK3C3-Myc + - + + + *** *** 2 4 6 8 log10 TCID50/ml *** + + + + PIK3C3-Myc - - - + - + + + *** WT KO PM (C). WT KO PM PRCV PM - + + PRCV + + + WT PIK3C3 KO PIK3C3 PRCV PIK3C3-Myc - - - + PM - + + + PRCV + + + + WT PIK3C3 KO 0 0) […]

[1] = test system: autophagosomes and autolysosomes; assay: Autophagic flux (RFP-EGFP-LC3B sensor) and transmission electron microscopy in ST cells; assay type: cell-based, swine
Protocol: Fig 6 PM degrades APN by autophagy-lysosome pathway. (A) ST cells were treated with PM (10 mM) and infected with TGEV (0.1 MOI) in the presence and absence of MG132 (20 µM), 3-MA (20 mM), and Z-VAD-FMK (20 µM) for 16 h. The APN expression and TGEV N were detected by western blot. (B) ST cells were treated with PM (10 mM) at 2, 4, 8, and 16 h, autophagy markers P62 and LC3, and APN were measured by western blot. (C) ST cells were transfected with RFP-EGFP-LC3B for 12 h and then treated with PM (10 mM) or H2O for 36 h. The fluorescence of GFP and RFP was detected by confocal microscopy, scale bar: 5 µm. (D) Quantification of autophagosomes (Merge) and autolysosomes (RFP) from C using Image J software. (E) ST cells were treated with PM or H2O for 24 h. The autophagosomes (yellow arrow) and autolysosomes (asterisk) were detected by transmission electron microscope, scale bar: 2 µm. (F) The number of autophagosomes (yellow arrow) and autolysosomes (asterisk) was quantified. All western blot results were calculated by Image J. Results are presented as mean ± SD of data from three independent experiments. ***, P ≤ 0.001.

`[K+].[K+].[O]=[Mo](=[O])([O-])[O-]` [PM, potassium molybdate] was tested, and the “APN level, western blot quantified by Image J, relative to no PM (=1)” value (APN; 8 h) was 0.38, the “APN level, western blot quantified by Image J, relative to no PM (=1)” value (APN; 16 h) was 0.20 and the “mouse-derived APN expression” value (APN; PM for 8 and 16 h) was “also decreased human and mouse-derived APN expression”. For the same molecule, the “PRCV N level, western blot, relative to WT without PM (=1)” value (PRCV; Fig. S8A, PIK3C3 KO ST cells) was 0.81, the “PRCV N level, western blot, relative to WT without PM (=1)” value (PRCV; Fig. S8A, WT ST cells) was 0 and the “PRCV N level, western blot, relative to WT without PM (=1)” value (PRCV; Fig. S8D, PIK3C3 KO ST cells with PIK3C3-Myc) was 0. For the same molecule, the “PRCV N level, western blot, relative to WT without PM (=1)” value (PRCV; Fig. S8D, PIK3C3 KO ST cells without PIK3C3-Myc) was 0.78, the “PRCV N level, western blot, relative to WT without PM (=1)” value (PRCV; Fig. S8D, WT ST cells with pCMV-Myc) was 0 and the PRCV infection (PRCV; ST cells, PM 1 h pretreatment and 17 h after infection, RT-qPCR, TCID50, western blot, IFA) was “effectively restricted”. The “autophagic flux (RFP-EGFP-LC3B sensor)” value ([1]; PM 10 mM, 36 h, confocal microscopy) was “increased RFP signals (autolysosomes) and merge signals (autophagosomes)” and the “autophagosomes and autolysosomes by transmission electron microscopy” value ([1]; PM vs H2O, 24 h) was “formed more autophagosomes”.
